Each molecule was assayed against T1, human DPP-IV (Homo sapiens, UniProt P27487) (assay: DPP-IV inhibitory activity assay, fluorogenic substrate H-Gly-Pro-AMC). Conditions: recombinant human DPP-IV (aa 39-766), substrate H-Gly-Pro-AMC 10 μM, room temperature, 1 hour; read-out: IC50 (inhibitory activity to human DPP-4).
T1 construct: Human DPP-IV consisting of amino acids 39 to 766 followed by a C-terminal Streptavidin-tag; Streptavidin-tag (C); made in house
Assay type: biochemical
Procedure: Some of Compounds 1 to 40 were tested for their inhibitory activity to human DPP-IV.
Human DPP-IV consisting of amino acids 39 to 766 followed by a C-terminal Streptavidin-tag was expressed using the baculovirus system and purified to >80% purity. The enzyme was stored in 25 mM Tris buffer, pH 9.0, containing 300 mM NaCl at −80° C.
The fluorogenic substrates H-Gly-Pro-AMC was purchased from Bachem AG (Bubendorf, Switzerland). The substrate was kept as a 5 mM stock solution in DMSO at −20° C. All other chemicals were purchased from Sigma (Buchs, Switzerland).
The assay buffer for the DPP-IV reaction was 25 mM Tris/HCl, pH 7.5, containing 140 mM NaCl, 10 mM KCl and 0.05% (w/v) CHAPS.
The test compounds were dissolved in 90% DMSO/10% H2O (v/v). Serial dilutions of the compounds from 3 mM to 0.03 μM in 90% DMSO/10% H2O (v/v) followed by a 1:33.3 dilution in assay buffer was done in 96-well polypropylene plates using a CyBio Dilus 8-channel pipettor (CyBio AG, Jena, Germany) with tip change after each pipetting step. The compound solutions as well as the substrate and the enzyme solutions were transferred to the assay plates (384-well black Cliniplate; cat. no. 95040020 Labsystems Oy, Finland) by means of a CyBi-Well 96-channel pipettor (CyBio AG, Jena, Germany).
Enzyme kinetics were measured by mixing 10 μl of a 3-fold concentrated substrate solution in assay buffer (final substrate concentration was 10 μM) with 10 μl of the corresponding compound solution. The reactions were initiated by addition of 10 μl of a 3-fold concentrated solution of the enzyme in assay buffer. Final enzyme (active site) concentrations in the assay was […] for DPP-IV. Fluorescence product (AMC) formation was monitored for 1 hour at room temperature at 35 second intervals by measuring the fluorescence emission at 500 nm using an exitation wavelength of 350 nm in a TECAN Ultra fluorescence reader (TECAN, Maennedorf, Switzerland). The fluorescence in each well was excited by one flash per measurement. The Origin software package (Origin 7.5 Mircocal, Northampton, Mass., USA) was used to generate all graphs and to perform the IC50 calculations.

T1 sequence (P27487 39-766): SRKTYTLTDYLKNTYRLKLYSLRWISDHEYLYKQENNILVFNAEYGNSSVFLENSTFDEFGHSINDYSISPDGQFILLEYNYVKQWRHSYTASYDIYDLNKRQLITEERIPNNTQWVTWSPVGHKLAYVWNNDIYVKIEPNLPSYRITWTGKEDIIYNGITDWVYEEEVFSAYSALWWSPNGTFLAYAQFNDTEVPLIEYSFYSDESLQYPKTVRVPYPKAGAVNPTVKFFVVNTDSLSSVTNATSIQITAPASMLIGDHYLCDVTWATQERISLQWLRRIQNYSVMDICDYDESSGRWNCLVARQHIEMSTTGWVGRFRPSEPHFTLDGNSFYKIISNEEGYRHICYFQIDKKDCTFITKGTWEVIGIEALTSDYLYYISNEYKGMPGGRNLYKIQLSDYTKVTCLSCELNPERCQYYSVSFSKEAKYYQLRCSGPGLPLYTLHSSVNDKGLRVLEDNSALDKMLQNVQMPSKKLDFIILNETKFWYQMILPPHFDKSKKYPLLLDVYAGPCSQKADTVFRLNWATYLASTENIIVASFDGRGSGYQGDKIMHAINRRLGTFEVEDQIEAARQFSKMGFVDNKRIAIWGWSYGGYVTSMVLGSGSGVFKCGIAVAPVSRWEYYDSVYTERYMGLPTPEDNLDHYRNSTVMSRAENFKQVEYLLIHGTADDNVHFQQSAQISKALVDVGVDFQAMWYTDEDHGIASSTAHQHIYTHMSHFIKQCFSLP

IC50 | Compound
23 nM | NCc1cc2ncc(-c3ccc(F)c(F)c3)n2cc1-c1ccc(Cl)cc1Cl [Compound 4d, C-[6-(2,4-Dichloro-phenyl)-3-(3,4-difluoro-phenyl)-imidazo[1,2-a]pyridin-7-yl]-methylamine]
25 nM | CN1CCC(C(=O)Nc2nnc3cc(CN)c(-c4ccc(Cl)cc4Cl)cn23)CC1 [Compound 18b, 1-Methyl-piperidine-4-carboxylic acid [7-aminomethyl-6-(2,4-dichloro-phenyl)-[1,2,4]triazolo[4,3-a]pyridin-3-yl]-amide]
22 nM | NCc1cc2ncc(C(=O)N3CCOCC3)n2cc1-c1ccc(Cl)cc1Cl [Compound 27a, [7-Aminomethyl-6-(2,4-dichloro-phenyl)-imidazo[1,2-a]pyridin-3-yl]-morpholin-4-yl-methanone]
23 nM | COCCN(C)c1cnc2cc(CN)c(-c3ccc(Cl)cc3Cl)cn12 [Compound 7, [7-Aminomethyl-6-(2,4-dichloro-phenyl)-imidazo[1,2-a]pyridin-3-yl]-(2-methoxy-ethyl)-methyl-amine]
